Measurements from ChEMBL document CHEMBL1136951, “5-hydroxyindole-2-carboxylic acid amides: novel histamine-3 receptor inverse agonists for the treatment of obesity” (J Med Chem, 2009).

Assays:
hERG (KCNH2) = hERG (KCNH2) (Homo sapiens, UniProt Q12809); test: in vitro; conditions: CHO cells expressing human ERG
in vivo [1] = conditions: Wistar, rat
in vivo [2] = conditions: Sprague-Dawley, rat, brain/plasma, ip, 30 mg/kg
[3] = rat, microsomes, 2 µM
Rattus norvegicus [4] = organism: Rattus norvegicus; test: animal or person; conditions: Wistar, ip, read-out: INH
physchem [5] = conditions: octanol/water, pH 7.4
in vivo [6] = conditions: Sprague-Dawley, rat, brain, ip, 30 mg/kg
[7] = human, microsomes, 2 µM
physchem [8] = test: physchem
Rattus norvegicus [9] = organism: Rattus norvegicus; test: animal or person; conditions: Wistar, ip, read-out: INH; remark: listed apart in the source
in vivo [10] = conditions: Sprague-Dawley, rat, brain, po, 10 mg/kg
in vivo [11] = conditions: Wistar, rat; remark: listed apart in the source
Rattus norvegicus [12] = organism: Rattus norvegicus; test: animal or person; conditions: Wistar, ip, read-out: INH; remark: listed apart in the source
[13] = molecular target: Histamine H2 receptor (Homo sapiens) (UniProt P25021); conditions: CHO, 3 uM
physchem [14] = test: physchem; remark: listed apart in the source
in vivo [15] = conditions: Wistar, rat; remark: listed apart in the source
Rattus norvegicus [16] = organism: Rattus norvegicus; test: animal or person; conditions: Wistar, ip, read-out: INH; remark: listed apart in the source
Rattus norvegicus [17] = organism: Rattus norvegicus; test: animal or person; conditions: Wistar, po, read-out: INH
[18] = molecular target: Histamine H3 receptor (Homo sapiens) (UniProt Q9Y5N1); conditions: CHO, 3 uM
[19] = molecular target: Histamine H1 receptor (Homo sapiens) (UniProt P35367); conditions: CHO, 3 uM
[20] = molecular target: Histamine H4 receptor (Homo sapiens) (UniProt Q9H3N8); conditions: CHO, 3 uM
Rattus norvegicus [21] = organism: Rattus norvegicus; test: animal or person; conditions: Wistar, po, read-out: INH; remark: listed apart in the source
in vivo [22] = conditions: Sprague-Dawley, rat, brain, ip, 10 mg/kg

Sequence of hERG (KCNH2) (Q12809 whole entry): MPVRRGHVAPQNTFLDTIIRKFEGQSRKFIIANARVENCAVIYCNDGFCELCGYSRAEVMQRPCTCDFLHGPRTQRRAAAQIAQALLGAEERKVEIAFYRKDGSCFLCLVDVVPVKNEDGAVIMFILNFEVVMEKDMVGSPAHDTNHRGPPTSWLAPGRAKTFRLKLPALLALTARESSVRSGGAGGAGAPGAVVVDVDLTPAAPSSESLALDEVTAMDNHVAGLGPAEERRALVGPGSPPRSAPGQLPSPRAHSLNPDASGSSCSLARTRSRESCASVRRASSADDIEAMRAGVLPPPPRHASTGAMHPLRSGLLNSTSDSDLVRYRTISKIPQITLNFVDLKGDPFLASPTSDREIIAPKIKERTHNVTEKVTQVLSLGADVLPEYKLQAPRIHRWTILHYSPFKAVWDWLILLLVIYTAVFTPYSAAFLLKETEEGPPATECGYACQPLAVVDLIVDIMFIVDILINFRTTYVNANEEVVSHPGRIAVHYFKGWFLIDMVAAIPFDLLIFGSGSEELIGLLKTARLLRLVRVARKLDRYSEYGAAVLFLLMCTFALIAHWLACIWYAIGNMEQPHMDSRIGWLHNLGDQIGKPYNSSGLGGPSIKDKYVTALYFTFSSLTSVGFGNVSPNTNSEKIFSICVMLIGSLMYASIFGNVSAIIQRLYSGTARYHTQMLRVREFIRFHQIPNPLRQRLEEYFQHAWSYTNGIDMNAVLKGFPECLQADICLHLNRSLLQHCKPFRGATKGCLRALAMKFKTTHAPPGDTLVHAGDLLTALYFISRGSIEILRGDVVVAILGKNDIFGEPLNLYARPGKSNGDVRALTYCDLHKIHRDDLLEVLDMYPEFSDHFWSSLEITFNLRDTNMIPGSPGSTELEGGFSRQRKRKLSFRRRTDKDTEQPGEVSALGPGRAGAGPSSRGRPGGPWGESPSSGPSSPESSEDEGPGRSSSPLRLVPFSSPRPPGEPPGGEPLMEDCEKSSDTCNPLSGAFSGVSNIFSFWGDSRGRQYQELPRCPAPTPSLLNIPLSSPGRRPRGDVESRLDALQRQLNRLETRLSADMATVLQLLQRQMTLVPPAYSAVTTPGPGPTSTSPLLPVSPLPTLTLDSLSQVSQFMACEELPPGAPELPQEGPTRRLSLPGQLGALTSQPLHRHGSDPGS
Sequence of Histamine H2 receptor (Homo sapiens) (P25021 whole entry): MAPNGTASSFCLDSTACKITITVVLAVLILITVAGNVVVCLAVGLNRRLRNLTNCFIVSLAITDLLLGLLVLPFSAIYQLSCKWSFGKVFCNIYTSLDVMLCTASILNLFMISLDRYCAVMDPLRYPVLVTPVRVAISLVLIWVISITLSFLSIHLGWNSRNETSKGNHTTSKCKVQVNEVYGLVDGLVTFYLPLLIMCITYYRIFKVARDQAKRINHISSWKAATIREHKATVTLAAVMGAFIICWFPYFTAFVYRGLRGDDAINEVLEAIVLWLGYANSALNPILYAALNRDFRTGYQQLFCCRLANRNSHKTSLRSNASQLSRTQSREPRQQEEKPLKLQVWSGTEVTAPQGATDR
Sequence of Histamine H1 receptor (Homo sapiens) (P35367 whole entry): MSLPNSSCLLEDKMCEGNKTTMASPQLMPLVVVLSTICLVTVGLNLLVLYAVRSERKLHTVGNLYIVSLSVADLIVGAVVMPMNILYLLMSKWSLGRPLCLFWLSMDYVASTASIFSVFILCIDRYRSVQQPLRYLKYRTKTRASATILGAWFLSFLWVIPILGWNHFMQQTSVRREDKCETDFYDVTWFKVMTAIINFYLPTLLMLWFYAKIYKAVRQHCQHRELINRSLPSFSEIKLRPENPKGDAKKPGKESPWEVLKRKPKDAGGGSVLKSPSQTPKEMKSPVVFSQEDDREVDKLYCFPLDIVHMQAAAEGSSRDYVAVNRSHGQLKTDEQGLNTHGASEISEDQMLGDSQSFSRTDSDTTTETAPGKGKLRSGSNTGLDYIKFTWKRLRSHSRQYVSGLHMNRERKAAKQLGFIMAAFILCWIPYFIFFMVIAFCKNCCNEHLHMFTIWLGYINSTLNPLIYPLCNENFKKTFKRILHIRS
Sequence of Histamine H4 receptor (Homo sapiens) (Q9H3N8 whole entry): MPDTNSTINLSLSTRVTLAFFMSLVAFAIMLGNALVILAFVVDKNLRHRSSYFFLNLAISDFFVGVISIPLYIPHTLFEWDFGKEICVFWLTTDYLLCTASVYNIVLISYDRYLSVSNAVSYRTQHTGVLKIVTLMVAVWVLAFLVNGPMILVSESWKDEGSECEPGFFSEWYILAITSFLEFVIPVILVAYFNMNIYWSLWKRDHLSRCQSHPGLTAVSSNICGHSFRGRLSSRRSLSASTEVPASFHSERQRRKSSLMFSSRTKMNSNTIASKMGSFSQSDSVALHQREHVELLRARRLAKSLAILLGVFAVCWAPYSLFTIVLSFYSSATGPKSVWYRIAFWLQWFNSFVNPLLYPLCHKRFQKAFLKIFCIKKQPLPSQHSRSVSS
Sequence of Histamine H3 receptor (Homo sapiens) (Q9Y5N1 whole entry): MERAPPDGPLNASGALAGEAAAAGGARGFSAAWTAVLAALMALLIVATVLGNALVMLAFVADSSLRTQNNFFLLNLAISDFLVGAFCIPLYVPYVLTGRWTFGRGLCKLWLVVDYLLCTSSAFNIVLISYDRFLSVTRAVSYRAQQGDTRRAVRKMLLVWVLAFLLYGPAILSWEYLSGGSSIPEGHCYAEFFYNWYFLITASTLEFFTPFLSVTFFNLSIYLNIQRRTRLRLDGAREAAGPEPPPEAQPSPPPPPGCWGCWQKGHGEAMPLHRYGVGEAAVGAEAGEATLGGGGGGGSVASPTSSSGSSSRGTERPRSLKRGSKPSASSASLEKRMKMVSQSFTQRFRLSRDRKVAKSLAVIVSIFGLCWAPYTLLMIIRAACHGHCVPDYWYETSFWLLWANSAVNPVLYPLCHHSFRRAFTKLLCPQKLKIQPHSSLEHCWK

CC(C)N1CCC(Oc2ccc3[nH]c(C(=O)N4CCOCC4)cc3c2)CC1
inhibition at 10 µM (hERG (KCNH2)): 28%
half-life (in vivo [1]): 1 h
Kp (in vivo [2]): 0.3
clearance [3]: 12 µL/min/mg
inhibition in vivo at 30 mg/kg (Rattus norvegicus [4]): 91%
logD (physchem [5]): 0.09
concentration at 2 h (in vivo [6]): 2230 ng/g
clearance [7]: < 1 µL/min/mg
pKa (physchem [8]): 10

CC(C)(C)N1CCC(Oc2ccc3[nH]c(C(=O)N4CCOCC4)cc3c2)CC1
clearance [3]: 13 µL/min/mg
logD (physchem [5]): 0.03
clearance [7]: 10 µL/min/mg
pKa (physchem [8]): 10

CC(C)N1CCC(Oc2ccc3c(c2)cc(C(=O)N2CCC(F)(F)CC2)n3C(C)C)CC1
inhibition in vivo at 3 mg/kg (Rattus norvegicus [9]): 80%
inhibition at 10 µM (hERG (KCNH2)): 42%
half-life (in vivo [1]): 11 h
concentration at 2 h (in vivo [10]): 1270 ng/g
Vd (in vivo [11]): 9.2 L/kg
clearance [3]: 12 µL/min/mg
logD (physchem [5]): 1.67
clearance [7]: 4 µL/min/mg
pKa (physchem [8]): 9.9

CC(C)N1CCC(Oc2ccc3cc(C(=O)N4CCOCC4)[nH]c3c2)CC1
inhibition in vivo at 10 mg/kg (Rattus norvegicus [12]): 60%
clearance [3]: 8 µL/min/mg
logD (physchem [5]): 0.31
clearance [7]: < 1 µL/min/mg
pKa (physchem [8]): 9.7

CC(C)N1CCC(Oc2ccc3c(c2)cc(C(=O)N2CCC(F)(F)CC2)n3-c2ccc(Cl)c(Cl)c2)CC1
inhibition [13]: > 30%
clearance [3]: 104 µL/min/mg
logD (physchem [5]): 3.38
clearance [7]: < 1 µL/min/mg

CC(C)N1CCC(Oc2ccc3[nH]c(C(=O)N4CCC(O)C4)cc3c2)CC1 (stereo not drawn)
clearance [3]: 5 µL/min/mg
inhibition in vivo at 30 mg/kg (Rattus norvegicus [4]): 83%
logD (physchem [5]): -0.15
clearance [7]: 12 µL/min/mg
pKa (physchem [8]): 9.8

CC(C)N1CCC(Oc2ccc3[nH]c(C(=O)N4CCCCCC4)cc3c2)CC1
inhibition in vivo at 10 mg/kg (Rattus norvegicus [12]): 76%
clearance [3]: 55 µL/min/mg
logD (physchem [5]): 1.75
clearance [7]: 10 µL/min/mg
pKa (physchem [8]): 9.7

CC(C)N1CCC(Oc2ccc3[nH]c(C(=O)N4CCCC(F)(F)C4)cc3c2)CC1
inhibition in vivo at 10 mg/kg (Rattus norvegicus [12]): 86%
clearance [3]: 17 µL/min/mg
logD (physchem [5]): 1.23
clearance [7]: < 1 µL/min/mg
pKa (physchem [8]): 10

CC(C)N1CCC(Oc2ccc3[nH]c(C(=O)N4CCC(F)(F)CC4)cc3c2)CC1
solubility (physchem [14]): > 540 µg/mL
inhibition at 10 µM (hERG (KCNH2)): 73%
half-life (in vivo [1]): 4 h
concentration at 2 h (in vivo [10]): 1690 ng/g
bioavailability (in vivo [15]): 100%
clearance [3]: 9 µL/min/mg
logD (physchem [5]): 1.2
clearance [7]: 5 µL/min/mg
pKa (physchem [8]): 9.7
inhibition in vivo at 1 mg/kg (Rattus norvegicus [16]): 58%

O=C(c1ccc2c(c1)cc(C(=O)N1CCOCC1)n2CC(F)(F)F)N1CCN(C2CCC2)CC1
inhibition at 10 µM (hERG (KCNH2)): 33%
inhibition in vivo at 10 mg/kg (Rattus norvegicus [17]): 93%
Kp (in vivo [2]): 0.3
Vd (in vivo [11]): 1.5 L/kg
clearance [3]: 16 µL/min/mg
logD (physchem [5]): 1.97
clearance [7]: 10 µL/min/mg
pKa (physchem [8]): 6.8

CCOC(=O)c1cc2cc(C(=O)O)ccc2[nH]1
clearance [3]: 15 µL/min/mg
logD (physchem [5]): 0.04
clearance [7]: < 1 µL/min/mg

CCN(c1ccc2[nH]c(C(=O)N3CCOCC3)cc2c1)C1CCN(C(C)C)CC1
inhibition [18]: 19%

O=C(c1cc2cc(OCCCN3CCCCC3)ccc2[nH]1)N1CCOCC1
inhibition in vivo at 10 mg/kg (Rattus norvegicus [12]): 66%
inhibition [19]: 6%
inhibition [20]: 4%
inhibition [13]: 3%
clearance [3]: 6 µL/min/mg
logD (physchem [5]): 0.32
clearance [7]: < 1 µL/min/mg
pKa (physchem [8]): 10

Cc1[nH]c2ccc(OC3CCN(C(C)C)CC3)cc2c1C(=O)N1CCOCC1
clearance [3]: 15 µL/min/mg
logD (physchem [5]): -0.12
clearance [7]: < 1 µL/min/mg
pKa (physchem [8]): 9.8

CC(=O)n1c(C(=O)N2CCC(F)(F)CC2)cc2cc(OC3CCN(C(C)C)CC3)ccc21
clearance [7]: < 1 µL/min/mg

CC(C)N1CCC(Oc2ccc3c(c2)cc(C(=O)N2CCC(F)(F)CC2)n3S(=O)(=O)c2ccc(F)cc2)CC1
inhibition [13]: > 30%
clearance [3]: 20 µL/min/mg
logD (physchem [5]): 3.04
clearance [7]: < 1 µL/min/mg

CC(C)N1CCC(Oc2ccc3c(c2)cc(C(=O)N2CCC(F)(F)CC2)n3S(C)(=O)=O)CC1
inhibition at 10 µM (hERG (KCNH2)): 64%
half-life (in vivo [1]): 6 h
Vd (in vivo [11]): 9.2 L/kg
clearance [3]: 10 µL/min/mg
logD (physchem [5]): 1.31
inhibition in vivo at 3 mg/kg (Rattus norvegicus [21]): 81%
clearance [7]: < 1 µL/min/mg
pKa (physchem [8]): 9.6

CC(C)N1CCC(Oc2ccc3c(c2)cc(C(=O)N2CCC(F)(F)CC2)n3CC#N)CC1
clearance [3]: 16 µL/min/mg
logD (physchem [5]): 1.13
clearance [7]: < 1 µL/min/mg
pKa (physchem [8]): 9.8

CC(C)N1CCC(Oc2ccc3c(c2)cc(C(=O)N2CCC(F)(F)CC2)n3CC(F)(F)F)CC1
concentration at 2 h (in vivo [22]): 435 ng/g
inhibition in vivo at 3 mg/kg (Rattus norvegicus [9]): 49%
half-life (in vivo [1]): 1.8 h
clearance [3]: 8 µL/min/mg
logD (physchem [5]): 2.08
clearance [7]: 2 µL/min/mg
pKa (physchem [8]): 9.7

O=C(c1cc2cc(OC3CCN(C4CC4)CC3)ccc2[nH]1)N1CCOCC1
clearance [3]: 347 µL/min/mg
logD (physchem [5]): 1.95
clearance [7]: 5 µL/min/mg
pKa (physchem [8]): 7.7

CC(C)N1CCC(Nc2ccc3[nH]c(C(=O)N4CCOCC4)cc3c2)CC1
clearance [3]: 9 µL/min/mg
inhibition in vivo at 30 mg/kg (Rattus norvegicus [4]): 99%
logD (physchem [5]): -0.7
clearance [7]: 5 µL/min/mg
pKa (physchem [8]): 9.9

O=C(c1cc2cc(OC3CCN(C4COC4)CC3)ccc2n1CC(F)(F)F)N1CCOCC1
clearance [3]: 228 µL/min/mg
logD (physchem [5]): 1.83
clearance [7]: 8 µL/min/mg
pKa (physchem [8]): 6.4

O=C(c1cc2cc(OC3CCN(C4CC4)CC3)ccc2n1CC(F)(F)F)N1CCOCC1
clearance [3]: 143 µL/min/mg
logD (physchem [5]): 2.79
clearance [7]: 11 µL/min/mg
pKa (physchem [8]): 7.5

CC(C)N1CCC(Oc2ccc3c(c2)cc(C(=O)N2CCS(=O)(=O)CC2)n3CC(F)(F)F)CC1
clearance [3]: 4 µL/min/mg
logD (physchem [5]): 0.35
clearance [7]: 1 µL/min/mg
pKa (physchem [8]): 9.6

CC(C)N1CCC(Oc2ccc3c(c2)cc(C(=O)N2CCOCC2)n3CC(F)(F)F)CC1
inhibition in vivo at 10 mg/kg (Rattus norvegicus [12]): 87%
inhibition in vivo at 10 mg/kg (Rattus norvegicus [17]): 87%
clearance [3]: 13 µL/min/mg
logD (physchem [5]): 1.1
clearance [7]: < 1 µL/min/mg
pKa (physchem [8]): 9.7

COC1CCN(C(=O)c2cc3cc(OC4CCN(C(C)C)CC4)ccc3[nH]2)CC1
clearance [3]: 20 µL/min/mg
inhibition in vivo at 30 mg/kg (Rattus norvegicus [4]): 70%
logD (physchem [5]): 0.59
clearance [7]: 5 µL/min/mg
pKa (physchem [8]): 9.9

CC(C)N1CCC(Oc2cc3[nH]c(C(=O)N4CCOCC4)cc3cc2F)CC1
clearance [3]: 18 µL/min/mg
clearance [7]: 6 µL/min/mg
pKa (physchem [8]): 9.5

O=C(c1cc2cc(OC3CCN(C4CCC4)CC3)ccc2n1CC(F)(F)F)N1CCOCC1
clearance [3]: 28 µL/min/mg
logD (physchem [5]): 2.09
clearance [7]: 4 µL/min/mg
pKa (physchem [8]): 9.1
